In EP2848693A1, “Concatenation of halogenated alkenyl diphosphate derivatives” (LANXESS Deutschland GmbH, priority 2013, dated 2015):

What was measured:
MtUPPS = target: T1, MtUPPS (Mycobacterium tuberculosis, UniProt P9WFF7); assay: Prenyltransferase activity test, conversion of FPP with elongation substrate (MTP phosphate detection assay); format: biochemical; details: 5 µM E,E-FPP, 200 µM elongation substrate, 50 µM enzyme, room temperature
T1 construct: poly-Histidin-Tag (His6) (N); made in house; host or cells: E. coli BL21 (DE3)
T1 sequence (P9WFF7 whole entry): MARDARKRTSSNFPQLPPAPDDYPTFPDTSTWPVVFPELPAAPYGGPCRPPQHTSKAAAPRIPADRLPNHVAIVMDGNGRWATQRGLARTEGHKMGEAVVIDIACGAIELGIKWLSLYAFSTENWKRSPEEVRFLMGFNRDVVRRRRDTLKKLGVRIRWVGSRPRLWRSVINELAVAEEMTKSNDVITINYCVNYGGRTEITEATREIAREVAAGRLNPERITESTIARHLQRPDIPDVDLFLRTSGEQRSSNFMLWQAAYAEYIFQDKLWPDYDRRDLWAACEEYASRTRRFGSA
Method: (§1) Die Aktivität der Prenyltransferasen wurde hinsichtlich der Umsetzung von Farnesyldiphosphat (FPP) als Startersubstrat und Isopentenyldiphosphat (IPP), und Cl-BPP bzw. Br-BPP mit Hilfe des MTP-Phosphatdetektionsassays bestimmt.
(§2) Cl-BPP und jeweils 50 µM Enzym bei Raumtemperatur durchgeführt. […] Cl-BPP gezeigt werden. Als Negativkontrolle diente ein Ansatz ohne Enzym (nicht gezeigt).

MIUPPS = target: T2, MIUPPS (Micrococcus luteus, UniProt O82827); assay: as above; format: biochemical; details: 5 µM E,E-FPP, 200 µM elongation substrate, 50 µM enzyme, room temperature
T2 construct: poly-Histidin-Tag (His6) (N); made in house; host or cells: E. coli BL21 (DE3)
T2 sequence (O82827 1-249): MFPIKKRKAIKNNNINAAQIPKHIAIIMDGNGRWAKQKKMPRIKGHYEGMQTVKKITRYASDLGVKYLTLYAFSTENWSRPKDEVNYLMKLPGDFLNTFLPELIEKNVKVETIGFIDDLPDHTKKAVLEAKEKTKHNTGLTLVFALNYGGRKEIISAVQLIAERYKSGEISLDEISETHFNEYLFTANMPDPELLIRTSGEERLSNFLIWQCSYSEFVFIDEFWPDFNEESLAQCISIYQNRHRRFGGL
Method: as §1, §2

EcUPPS = target: T3, EcUPPS (Escherichia coli, UniProt P60472); assay: as above; format: biochemical; details: 5 µM E,E-FPP, 200 µM elongation substrate, 50 µM enzyme, room temperature
T3 construct: made in house; host or cells: E. coli
T3 sequence (P60472 whole entry): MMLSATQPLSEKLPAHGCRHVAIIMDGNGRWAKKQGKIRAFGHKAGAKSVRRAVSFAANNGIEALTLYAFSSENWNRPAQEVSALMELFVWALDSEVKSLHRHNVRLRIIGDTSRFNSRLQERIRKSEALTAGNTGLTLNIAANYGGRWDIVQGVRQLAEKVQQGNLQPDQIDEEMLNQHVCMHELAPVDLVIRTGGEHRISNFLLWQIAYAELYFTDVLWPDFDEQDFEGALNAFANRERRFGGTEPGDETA
Method: as §1, §2

HpUPPS = target: T4, HpUPPS (Helicobacter pylori, UniProt P55984); assay: as above; format: biochemical; details: 5 µM E,E-FPP, 200 µM elongation substrate, 50 µM enzyme, room temperature
T4 construct: poly-Histidin-Tag (His6) (N); made in house; host or cells: E. coli BL21 (DE3)
T4 sequence (P55984 whole entry): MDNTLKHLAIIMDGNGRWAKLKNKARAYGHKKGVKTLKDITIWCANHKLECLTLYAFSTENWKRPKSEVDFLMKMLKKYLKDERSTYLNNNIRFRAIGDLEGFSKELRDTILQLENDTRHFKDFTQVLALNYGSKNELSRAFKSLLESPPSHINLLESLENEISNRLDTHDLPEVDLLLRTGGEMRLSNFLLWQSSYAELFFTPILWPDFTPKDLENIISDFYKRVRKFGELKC
Method: as §1, §2

ThkCPT = target: T5, ThkCPT (Thermococcus kodakarensis, UniProt Q5JGE1); assay: Product chain length by HPLC with fluorescent starter substrate 110; format: biochemical, Thermococcus kodakaraensis; details: 10 µM ThkCPT, 110 as starter substrate, room temperature 25°C
T5 construct: made in house; host or cells: E. coli
T5 sequence (Q5JGE1 1-264): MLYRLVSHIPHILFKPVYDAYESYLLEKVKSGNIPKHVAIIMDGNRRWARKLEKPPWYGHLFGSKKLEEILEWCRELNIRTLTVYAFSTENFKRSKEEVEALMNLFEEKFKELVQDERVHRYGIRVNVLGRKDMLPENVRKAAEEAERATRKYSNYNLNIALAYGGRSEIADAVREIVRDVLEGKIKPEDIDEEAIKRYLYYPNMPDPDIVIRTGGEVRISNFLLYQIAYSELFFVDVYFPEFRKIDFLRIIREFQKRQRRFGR
Method: Zur Bestimmung der Produktkettenlängen wurden 500 µL Enzymassays in MS-Gläschen durchgeführt. […] Die Extraktion der Polyprenyldiphosphate erfolgte mit 500 µL 1-Butanol. Die Butanolphase wurde in ein neues Glas überführt und unter Stickstoffstrom von dem Lösungsmittel befreit. Die Hydrolyse der Diphosphate zum Polyprenol erfolgte durch Zugabe von 200 µL Hydrolysepuffer (20% Isopropanol, 4,4 Units/mL saure Phophatase aus Kartoffeln, 0,1 % Triton X-100, 50 mM Natriumacetat (pH 4,7)) und wurde über Nacht bei 37 °C inkubiert. Die Polyprenole wurden mit 500 µL nHexan extrahiert und zur weiteren DC- oder HPLC-Analyse vorbereitet. Für DC-Experimente und LC/ESI-MS-Analysen wurde die nHexan-Phase in ein neues Glas überführt, das Lösungsmittel abgedampft und die Produkte erneut in 100 µL nHexan resuspendiert um eine Aufkonzentrierung zu erreichen. Für HPLC-Analysen mit 110 ((2E,6E)-8-O-(N-methyl-2-aminobenzoyl)-3,7-dimethyl-2,6-octandien-1-diphosphat) als Startersubstrat wurde die nHexan-Phase 1:3 verdünnt in das HPLC-System mittels Autosampler injiziert.
Die HPLC-Analyse der Polyprenole erfolgte an einer Anlage von Merck HITACHI D-7000, wobei als stationäre Phase eine YMC-ODS AQ (150 x 4 mm, 5 µm; YMC Europe GmbH, Dinslaken) Säule verwendet wurde. Die Elution erfolgte mit 1 mL·min^-1 und die Detektion bei 210 nm mit einem UV-VIS Detektor: Merck HITACHI L-7420. Das Injektionsvolumen betrug dabei 5 µL. Die mobile Phase setzte sich aus Laufmittel A (MeOH/H2O/Isopropanol 12:1:8 (v/v/v)) und Laufmittel B (nHexan/Isopropanol 7:3 (v/v)) zusammen. Die Probenaufgabe erfolgte mittels Autosampler (Merck HITACHI L-7250). [drawing 35]
Zur selektiven und vor allem sensitiven Detektion von Polyprenolen kann ein alternatives, fluoreszierendes Startersubstrat verwendet werden, (2E,6E)-8-O-(N-methyl-2-aminobenzoyl)-3,7-dimethyl-2,6-octandien-1-diphosphat (110). Die Analyse erfolgte wie in Beispiel 6 beschrieben. Dabei wurden 3 µL pro Probe injiziert und die Detektion erfolgte über Fluoreszenz: Ex 352 nm / Em 420 nm wobei das Gerät Merck HITACHI L-7480 als Fluoreszenzdetektor verwendet wurde. […]

C=C(Cl)CCOP(=O)(O)OP(=O)(O)O [Cl-BPP, 3-Chlor-3-Butenyldiphosphat]
Aktivität (Umsetzung von FPP mit Elongationssubstrat) (MtUPPS): höchste Aktivität | Aktivität (Umsetzung von FPP mit Elongationssubstrat) (MIUPPS): im geringeren Maße | Aktivität (Umsetzung von FPP mit Elongationssubstrat) (EcUPPS): höchste Aktivität | Aktivität (Umsetzung von FPP mit Elongationssubstrat) (HpUPPS): im geringeren Maße | Kondensationen (Reaktionsprodukte) (ThkCPT): mehr als zwei Kondensationen
